What all share (type): biochemical, male Wistar rats
The target of test [1] is T1, dopamine transporter/uptake site (3H-DA uptake, striatal synaptosomes) (Rattus norvegicus, UniProt P23977).
T1 construct: Corpi striati from male Wistar rats (150-200 g) are homogenised; from tissue; host or cells: rat corpus striatum, P2 synaptosomal pellet
Briefly: In vitro inhibition of 3H-dopamine (3H-DA) uptake in striatal synaptosomes. An excerpt: (§1) The compounds of the invention have been tested for their ability to inhibit reuptake of dopamine(DA) noradrenaline(NA) and serotonine(5-HT) in synaptosomes.
(§2) Specific neurotransmitter transporters/uptake sites on nerve terminals presumably function to terminate neuronal signalling by removing the neurotransmitters dopamine, noradrenaline and serotonine, respectively, from the synaptic cleft. The activity of the transporter integral proteins can be measured in vitro by synaptosomal uptake of ^3H-dopamine, ^3H-noradrenaline and ^3H-serotonine, respectively.
In vitro Inhibition of ^3H-dopamine (^3H-DA) Uptake in Striatal Synaptosomes
(§3) Tissue preparations: Preparations are performed at 0-4° C. unless otherwise indicated. Corpi striati from male Wistar rats (150-200 g) are homogenised for 5-10 sec in 100 volumes of ice-cold 0.32M sucrose containing 1 mM pargyline using an Ultra-Turrax homogenizer. Monoamine oxidase activity will be inhibited in the presence of pargyline. The homogenate is centrifuged at 1000×g for 10 min. The resulting supernatant is then centrifuged at 27,000×g for 50 min and the supernatant is discarded. The pellet (P2) is resuspended in oxygenated (equilibrated with an atmosphere of 96% O2: 4% CO2 for at least 30 min) Krebs-Ringer incubation buffer (8000 ml per g of original tissue) at pH 7.2 containing 122 mM NaCl, 0.16 mM EDTA, 4.8 mM KCl, 12.7 mM Na2HPO4, 3.0 mM NaH2PO4, 1.2 mM MgSO4, 1 mM CaCl2, 10 mM glucose and 1 mM ascorbic acid.
(§4) Assay: Aliquots of 4.0 ml tissue suspension are added to 100 μl of test solution and 100 μl of ^3H-DA (1 nM, final concentration), mixed and incubated for 25 min at 37° C. Non-specific uptake is determined using benztropine (10 μM, final concentration). After incubation the samples are poured directly onto Whatman GF/C glass fibre filters under suction. The filters are then washed three times with 5 ml of ice-cold 0.9% (w/v) NaCl solution. The amount of radioactivity on the filters is determined by conventional liquid scintillation counting. Specific uptake is calculated as the difference between total uptake and non-specific uptake.
(§5) 25-75% inhibition of specific binding must be obtained, before calculation of an IC50.
The test value is given as IC50 (the concentration (μM) of the test substance which inhibits the specific binding of ^3H-DA by 50%).

The target of test [2] is noradrenaline transporter/uptake site (3H-NA uptake, hippocampal synaptosomes) (Rattus norvegicus, UniProt Q9WTR4). Nature of the test: In vitro inhibition of 3H-noradrenaline (3H-NA) uptake in hippocampal synaptosomes.
Excerpt: as §1, §2
In vitro Inhibition of ^3H-noradrenaline (^3H-NA) Uptake in Hippocampal Synaptosomes
as §3, with “Tissue preparation:” for “Tissue preparations:”, “indicated. Hippocampi” for “indicated. Corpi striati”, “buffer (2000” for “buffer (8000”, “per […]” for “per g”, “MgSO4, 0.97” for “MgSO4, 1”
as §4, with “^3H-NA” for “^3H-DA”, “90” for “25”, “desipramine (1” for “benztropine (10”
as §5
The test value is given as IC50 (the concentration (μM) of the test substance which inhibits the specific binding of ^3H-NA by 50%).

For test [3], the target named is T2, serotonine transporter/uptake site (3H-5-HT uptake, cortical synaptosomes) (Rattus norvegicus, UniProt P31652).
T2 construct: Cerebral cortices from male Wistar rats (150-200 g) are homogenised; from tissue; host or cells: rat cerebral cortex, P2 synaptosomal pellet
Nature of the test: In vitro inhibition of 3H-5-hydroxytryptamine (3H-5-HT, serotonine) uptake in cortical synaptosomes. As to conditions: for IC50: cortical synaptosomes; for greater potency as inhibitors of serotonine uptake than of either noradrenaline or dopamine uptake: selectivity, 5-HT uptake vs NA or DA uptake, in vitro.
Excerpt: as §1, §2
In vitro Inhibition of ^3H-5-hydroxytryptamine (^3H-5-HT, Serotonine) Uptake in Cortical Synaptosomes
as §3, with “Preparation:” for “preparations:”, “Cerebral cortices” for “Corpi striati”, “(1000” for “(8000”
as §4, with “^3H-5-HT” for “^3H-DA”, “30” for “25”, “citalopram (1” for “benztropine (10”
as §5
The test value is given as IC50 (the concentration (μM) of the test substance which inhibits the specific binding of ^3H-5-HT by 50%).

The mark [4] stands for this setting: DA-uptake IC50, Table 1, 3H-DA 1 nM, 25 min at 37° C.
Where [5] appears, read: read-out: NA-uptake IC50, Table 1, 3H-NA 1 nM, 90 min at 37° C.
The mark [6] stands for this setting: 5-HT-uptake IC50, Table 1, 3H-5-HT 1 nM, 30 min at 37° C.
Where [7] appears, read: DA-uptake IC50, Table 2, value ± spread.
The mark [8] stands for this setting: read-out: NA-uptake IC50, Table 2, value ± spread.
Where [9] appears, read: 5-HT-uptake IC50, Table 2, value ± spread.

The values below come from patent US6617459B2, “Azabicyclo derivatives and their use” (NeuroSearch A/S, priority 1999, dated 2003).

Structures are written as SMILES. Like-named read-outs stand apart in the source and are kept apart here.

T1 sequence (P23977 whole entry): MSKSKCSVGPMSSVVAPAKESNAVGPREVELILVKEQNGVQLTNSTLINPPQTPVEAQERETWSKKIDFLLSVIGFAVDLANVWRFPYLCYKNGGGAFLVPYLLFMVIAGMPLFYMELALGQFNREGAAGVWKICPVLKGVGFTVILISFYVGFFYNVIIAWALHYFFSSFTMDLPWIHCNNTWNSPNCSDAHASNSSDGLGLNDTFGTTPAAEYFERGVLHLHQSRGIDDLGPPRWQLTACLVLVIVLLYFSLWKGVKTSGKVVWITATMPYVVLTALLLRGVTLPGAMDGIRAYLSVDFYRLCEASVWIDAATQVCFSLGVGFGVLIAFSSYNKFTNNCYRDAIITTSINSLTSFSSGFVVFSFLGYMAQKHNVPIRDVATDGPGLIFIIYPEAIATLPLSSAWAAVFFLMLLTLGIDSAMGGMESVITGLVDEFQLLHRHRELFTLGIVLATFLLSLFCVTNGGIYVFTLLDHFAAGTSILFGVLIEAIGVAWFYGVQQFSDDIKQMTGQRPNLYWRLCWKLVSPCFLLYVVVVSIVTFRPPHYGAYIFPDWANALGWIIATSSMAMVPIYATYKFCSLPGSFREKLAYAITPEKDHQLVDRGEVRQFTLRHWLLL
T2 sequence (P31652 whole entry): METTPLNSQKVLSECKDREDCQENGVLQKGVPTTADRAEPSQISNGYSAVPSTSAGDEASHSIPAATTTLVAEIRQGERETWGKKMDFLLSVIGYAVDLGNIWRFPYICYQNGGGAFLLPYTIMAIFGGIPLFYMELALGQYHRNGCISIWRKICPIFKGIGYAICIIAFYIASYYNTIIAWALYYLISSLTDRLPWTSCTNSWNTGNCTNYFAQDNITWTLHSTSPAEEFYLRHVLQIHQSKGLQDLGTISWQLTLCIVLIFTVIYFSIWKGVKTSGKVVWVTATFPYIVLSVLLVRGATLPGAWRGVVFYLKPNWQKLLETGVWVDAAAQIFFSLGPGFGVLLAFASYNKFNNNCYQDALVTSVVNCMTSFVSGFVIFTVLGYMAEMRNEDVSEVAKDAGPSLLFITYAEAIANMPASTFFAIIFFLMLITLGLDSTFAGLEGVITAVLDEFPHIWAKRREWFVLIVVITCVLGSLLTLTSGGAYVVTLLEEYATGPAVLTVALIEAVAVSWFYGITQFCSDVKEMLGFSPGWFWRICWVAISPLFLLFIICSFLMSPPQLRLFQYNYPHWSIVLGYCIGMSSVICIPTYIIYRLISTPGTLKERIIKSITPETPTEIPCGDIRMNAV

Consider `CN1C2C=C(c3ccc(C#N)cc3)CC1CC2` (racemic) [(±)-3-(4-cyanophenyl)-8-methyl-8-azabicyclo(3.2.1]oct-2-ene], for which the IC50 (commonly the concentration that gives 50% inhibition) in test [1] (setting [4]) was determined as 18000 nM; in test [2] (setting [5]), 4900 nM; in test [3] (setting [6]), 47 nM.
As for `CN1C2C=C(c3ccc([N+](=O)[O-])cc3)CC1CC2` (racemic) [(±)-3-(4-nitrophenyl)-8-methyl-8-azabicyclo[3.2.1]oct-2-ene], the IC50 in test [1] (setting [4]) was determined as 1500 nM; in test [2] (setting [5]), 500 nM; in test [3] (setting [6]), 16 nM.
In the case of `FC(F)(F)Oc1ccc(C2=CC3CCC(C2)N3)cc1` (racemic) [(±)-3-(4-trifluoromethoxyphenyl)-8-azabicyclo[3.2.1]oct-2-ene (racemate), (±)-3-(4-trifluoromethoxyphenyl)-8-azabicyclo[3.2.1]oct-2-ene], the IC50 in test [1] (setting [7]) turned out to be 18700 ± 3500 nM; in test [2] (setting [8]), 15600 ± 3500 nM; in test [3] (setting [9]) it was 4.8 ± 0.6 nM. In test [3], the “greater potency as inhibitors of serotonine uptake than of either noradrenaline or dopamine uptake” value is reported as 3000 fold.
As for `CN1C2C=C(c3ccc(OC(F)(F)F)cc3)CC1CC2` (racemic) [(±)-3-(4-trifluoromethoxyphenyl)-8-methyl-8-azabicyclo[3.2.1]oct-2-ene], the IC50 in test [1] (setting [4]) was determined as 22000 nM; in test [1] (setting [7]), 21300 ± 1200 nM; in test [2] (setting [5]), 8000 nM; in test [2] (setting [8]), 12000 ± 2300 nM; in test [3] (setting [6]), 3.6 nM; in test [3] (setting [9]) it was 3.5 ± 0.3 nM. In test [3], the “greater potency as inhibitors of serotonine uptake than of either noradrenaline or dopamine uptake” value is 3000 fold.
`FC(F)(F)Oc1ccc(C2=CC3CCC(C2)N3)cc1` (single isomer, unassigned) [3-(4-trifluoromethoxyphenyl)-8-azabicyclo[3.2.1]oct-2-ene (enantiomer A*), 3-(4-trifluoromethoxyphenyl)-8-azabicyclo[3.2.1]oct-2-ene]: the IC50 in test [3] (setting [9]) amounted to 22 ± 12 nM.
On the same count and under the same terms, the figure for `FC(F)(F)Oc1ccc(C2=CC3CCC(C2)N3)cc1` (single isomer, unassigned) [3-(4-trifluoromethoxyphenyl)-8-azabicyclo[3.2.1]oct-2-ene (enantiomer B*), 3-(4-trifluoromethoxyphenyl)-8-azabicyclo[3.2.1]oct-2-ene] is 12 ± 6 nM.
